This note sets out measurements from US20230042653A1, “COMBINATIONS” (Recurium IP Holdings, LLC, priority 2019, published 2023).

For this test, the system named is MCF-7 xenograft tumor. Nature of the test: MCF-7 xenograft tumor model, combination study. As to conditions: single agent, FIG. 3. It is filed as in vivo.

`C=CCn1c(=O)c2cnc(Nc3ccc(N4CCN(C)CC4)cc3)nc2n1-c1cccc(C(C)(C)O)n1` [Compound 1]: the TGI (dose not printed for the single agent) is reported as 122.8%. For `C[C@@H]1Cc2c([nH]c3ccccc23)[C@@H](c2c(F)cc(/C=C/C(=O)O)cc2F)N1C12CC(C1)C2` [Compound (A)], the TGI (10 mg/kg) was determined as 128.3%.
